Assay results from ChEMBL document CHEMBL1201862, “PubChem BioAssay data set” (2004).
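Method: 48-hour compound exposure of cells in 96-well plates, five concentrations, linear interpolation of endpoints. Here, GI50 denotes the concentration required for 50% inhibition of growth.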 Active and inactive are the calls of the source. Rule as the data show it: active = GI50 up to about 1.1 µM and inactive = higher.

Tests used:
Test in all cases: NCI tumour cell line growth inhibition, 48 h
DLD-1 = tested on: DLD-1
DMS-114 = tested on: DMS-114
HOP-18 = tested on: HOP-18
KM-20L2 = tested on: KM-20L2
LXFL 529 = tested on: LXFL 529
M19-MEL = tested on: M19-MEL
XF498 = tested on: XF498
SNB-78 = tested on: SNB-78
RXF 631 = tested on: RXF 631

Row | Structure (SMILES) | GI50 (DLD-1) | GI50 (DMS-114) | GI50 (HOP-18) | GI50 (KM-20L2) | GI50 (LXFL 529) | GI50 (M19-MEL) | GI50 (XF498) | GI50 (SNB-78) | GI50 (RXF 631)
1 | Cc1c2c(cc3c1C(=O)C(=O)C1=C3OC[C@@H]1C)C(C)(C)CCC2 | 18.7 µM (inactive) | 16.8 µM (inactive) | 17.1 µM (inactive) | 19.5 µM (inactive) | 16 µM (inactive) | 2.64 µM (inactive) | 29.9 µM (inactive) |  | 
2 | [O-][S+]1C(=c2ccc(=C3Sc4ccccc4S3)cc2)Sc2ccccc21 (stereo not given) | 27.4 µM (inactive) | 20.8 µM (inactive) | > 100 µM (inactive) | 17.3 µM (inactive) | 51.2 µM (inactive) | 19.7 µM (inactive) |  | 53.3 µM (inactive) | 
3 | COc1ccc(OC)c(CCc2cc(OC)c(OC)cc2C)c1 | 4.7 µM (inactive) | 5.65 µM (inactive) |  | 49.8 µM (inactive) | 30.1 µM (inactive) | 5.51 µM (inactive) | 77.6 µM (inactive) | 7.52 µM (inactive) | 
4 | COc1ccc(C2=Nc3ccccc3SC(C)C2)cc1 (stereo not given) | 81.8 µM (inactive) | 73.3 µM (inactive) |  | > 100 µM (inactive) | 85.1 µM (inactive) | 94.6 µM (inactive) |  | > 100 µM (inactive) | 68.4 µM (inactive)
5 | N#Cc1cccc(C2SCc3nc4ccccc4n32)c1 (stereo not given) | 65.5 µM (inactive) | 49.4 µM (inactive) |  | > 100 µM (inactive) | 42.1 µM (inactive) |  | 33.6 µM (inactive) | > 100 µM (inactive) | > 100 µM (inactive)
6 | CCCCNC1CCCCC[C@H]1O (stereo not given in full) | > 100 µM (inactive) | > 100 µM (inactive) | > 100 µM (inactive) | > 100 µM (inactive) | > 100 µM (inactive) | > 100 µM (inactive) |  | > 100 µM (inactive) | 
7 | CCC1C(=O)OCc2c1cc1n(c2=O)Cc2ccccc2-1 (stereo not given) | > 100 µM (inactive) | > 100 µM (inactive) | > 100 µM (inactive) | > 100 µM (inactive) | > 100 µM (inactive) | > 100 µM (inactive) | > 100 µM (inactive) | > 100 µM (inactive) | > 100 µM (inactive)
8 | COc1ccc(C2C(Cl)C(=O)N2n2cnc3ccccc3c2=O)cc1 (stereo not given) | > 100 µM (inactive) | 72.8 µM (inactive) | 24.2 µM (inactive) | > 100 µM (inactive) | 62.1 µM (inactive) | 76 µM (inactive) | > 100 µM (inactive) | > 100 µM (inactive) | 
9 | O=Cn1c2ccccc2c2ccccc21 | > 100 µM (inactive) | > 100 µM (inactive) | 9.64 µM (inactive) | > 100 µM (inactive) | > 100 µM (inactive) | > 100 µM (inactive) | 36.1 µM (inactive) | > 100 µM (inactive) | 
10 | O=[N+]([O-])c1ccc(C2N3CCCCC3[C@H]3CCCCN23)cc1 (stereo not given in full) | > 100 µM (inactive) |  | > 100 µM (inactive) | > 100 µM (inactive) | > 100 µM (inactive) | > 100 µM (inactive) | > 100 µM (inactive) | > 100 µM (inactive) | > 100 µM (inactive)
11 | NC(=O)NNC(=O)CCn1[nH]c(=O)c(Cl)c(Cl)c1=O | > 100 µM (inactive) | > 100 µM (inactive) | > 100 µM (inactive) | > 100 µM (inactive) | > 100 µM (inactive) | > 100 µM (inactive) |  | > 100 µM (inactive) | > 100 µM (inactive)
12 | COc1ccccc1C1C(C(=O)Nc2ccccc2)=C(C)NC(C)=C1C(=O)Nc1ccccc1 |  | 41.8 µM (inactive) | > 100 µM (inactive) | 94.8 µM (inactive) | 61.5 µM (inactive) | 50.6 µM (inactive) | 36.3 µM (inactive) | > 100 µM (inactive) | 62.8 µM (inactive)
13 | CC(C)NC(=O)OCc1nnn2c1C(OC(=O)NC(C)C)CC2 (stereo not given) | > 100 µM (inactive) | > 100 µM (inactive) | > 100 µM (inactive) | > 100 µM (inactive) | > 100 µM (inactive) | > 100 µM (inactive) | > 100 µM (inactive) | > 100 µM (inactive) | > 100 µM (inactive)
14 | O=C(NCc1ccccc1)c1cc2ccc(O)c(O)c2cn1 | 18.5 µM (inactive) | 12.8 µM (inactive) | 20.7 µM (inactive) | > 100 µM (inactive) | 16.9 µM (inactive) | 1.8 µM (inactive) | 17.4 µM (inactive) | 18.1 µM (inactive) | 
15 | S=c1[nH]c(=S)c2nnn(-c3ccccc3)c2[nH]1 | > 100 µM (inactive) | 5.97 µM (inactive) |  | > 100 µM (inactive) | > 100 µM (inactive) | > 100 µM (inactive) | > 100 µM (inactive) |  | 
16 | COc1cc2c3c(c1OC)-c1cc4c(cc1CC3(C#N)N(C(=O)c1ccccc1)CC2)OCO4 (stereo not given) | > 55.7 µM (inactive) | 26.5 µM (inactive) | 21.2 µM (inactive) | > 80.9 µM (inactive) | 17.7 µM (inactive) | 46.8 µM (inactive) | 6.25 µM (inactive) | 11.4 µM (inactive) | 
17 | C/C(=C\C(C)COCc1ccccc1)[C@H](COCc1ccccc1)OCc1ccccc1 (stereo not given in full) |  | 57.5 µM (inactive) |  | > 100 µM (inactive) | 82 µM (inactive) | > 100 µM (inactive) | 8.53 µM (inactive) | > 100 µM (inactive) | > 100 µM (inactive)
18 | COc1cc(C2c3cc4c(cc3[C@H](NC(=O)c3cccs3)C3COC(=O)[C@H]23)OCO4)cc(OC)c1OC (stereo not given in full) | 0.0297 µM (active) | 0.0113 µM (active) | > 100 µM (inactive) | 0.0199 µM (active) | 0.0296 µM (active) |  |  | > 100 µM (inactive) | 
19 | COC(=O)C(=O)C(/C(=N/N)C(=O)Nc1ccccc1C(N)=O)c1nc2ccc([N+](=O)[O-])cc2nc1O (stereo not given) | > 100 µM (inactive) | > 100 µM (inactive) |  | > 100 µM (inactive) | > 100 µM (inactive) | > 100 µM (inactive) | > 100 µM (inactive) | > 100 µM (inactive) | 
20 | Nc1nc2c(ncn2CCOC(c2ccccc2)P(=O)(O)O)c(=O)[nH]1 (stereo not given) | > 100 µM (inactive) |  |  | > 100 µM (inactive) | > 100 µM (inactive) |  |  | > 100 µM (inactive) | 
21 | Cc1ccc([N+](=O)[O-])c2c(NCCCN(C)C)ccnc12 |  |  |  | 26.4 µM (inactive) |  |  |  | 55.7 µM (inactive) | 
22 | O=C1CCc2ccc(O)c(c2)Oc2ccc(cc2)[C@@H]2O[C@@H]2CO1 | 55.8 µM (inactive) | 20 µM (inactive) | 25.6 µM (inactive) | 88.5 µM (inactive) | 33.2 µM (inactive) | 38.1 µM (inactive) | 5.26 µM (inactive) |  | 
